The values that follow come from US4952598A, “3-phenyl indolinone derivatives, processes for their preparation, medicaments containing them, and their use” (Hoechst Aktiengesellschaft, priority 1985, dated 1990).

Counter-ions that a name gives are not always drawn.

By IC50 is commonly meant the point on the concentration scale where inhibition reaches its midpoint.

The experiment deals with calcium channels. Description: 3H-nitrendipine binding (nitrendipine displacement) test. Particulars: 3H-nitrendipine 0.1 nM, rat brain cortex membranes, pH 7.4, 25° C., 60 min. Here is the method: Their calcium-antagonistic activity can be shown in the biochemical test model of displacement of tritium-labeled nitrendipine.
This entails membrane preparations which contain isolated calcium channels being loaded with labeled substance.
After incubation with the test substance, the radioactivity which has been released into the supernatant solution is determined. […] The compounds of the formula I are likewise very active in other test models with which a calcium-antagonistic action can be detected, for example the coronary blood flow in the isolated guinea pig heart, or the action potential of the isolated guinea pig papillary muscle.
The test of the activity of substances in the ^3 H-nitrendipine binding test was carried out in a membrane preparation obtained from the cortex of the rat brain and washed several times, the method used essentially being that described by R.J. Gould et al. (Proc. Natl. Acad. Sci. USA 79, 3656 [1982]). The membrane suspension was diluted 1:1500 with TRIS buffer pH 7.4 (50 mM TRIS.HCl, 150 mM NaCl, 1.0 mM CaCl2 and 0.001% by weight, based on TRIS.HCl, NaCl and CaCl2 in solution, of a neutral surface-active substance such as, for example, Genapol^(R)) was incubated in 5 ml portions with ^3 H-nitrendipine (0.1 nM in the test, specific activity 81.3 Ci/mmol) in a shaking water bath at 25° C. for 60 min. The membrane fractions were removed by vacuum filtration through Whatman GF/F glass fiber filters, and the radioactivity was measured in a liquid scintillation counter. The unspecific ^3 H-nitrendipine binding was determined in the presence of 1 μM nifedipine.
With `COc1ccc(CCN(C)CCCCOc2ccccc2C2(Cc3ccccc3)C(=O)N(C)c3ccccc32)cc1OC` (stereo not shown) [Example 1, 3-Benzyl-3-[2-(4-(N-(2-(3,4-dimethoxyphenyl)ethyl)-N-methylamino)butoxy)phenyl]-1-methylindolin-2-one hydrochloride], the IC50 came to 8000 nM.

For `COc1ccc(CCN(C)CCCCOc2ccccc2C2(C(C)C)C(=O)N(C)c3ccccc32)cc1OC` (stereo not shown) [Example 3, 3-[2-(4-(N-(2-(3,4-dimethoxyphenyl)ethyl)-N-methylamino)butoxy)-phenyl]-3-isopropyl-1-methylindolin-2-one hydrochloride], the half-maximal inhibitory concentration (IC50) came to 22 nM.

Take `CC(C)C1(c2ccccc2OCCCCN2CCN(CCCC(c3ccc(F)cc3)c3ccc(F)cc3)CC2)C(=O)N(C)c2ccccc21` (stereo not shown) [Example 5, 3-[2-(4-(4-(4-bis(4-fluorophenyl)butyl)-1-piperazinyl)butoxy)phenyl]-3-isopropyl-1-methylindolin-2-one dihydrochloride]: the IC50 was 13 nM.

Consider `COc1cc(CN2CCN(CCCCOc3ccccc3C3(C(C)C)C(=O)N(C)c4ccccc43)CC2)cc(OC)c1OC` (stereo not shown) [Example 6, 3-Isopropyl-1-methyl-3-[2-(4-(4-(3,4,5-trimethoxybenzyl)-1-piperazinyl)butoxy)phenyl)indolin-2-one dichydrochloride], for which the IC50 amounted to 44 nM.
